Laboratory results taken from PubChem BioAssay (NCI).
“And” between values parts separate entries of the source, which are not always exact repeats. Identical values can stand only once.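 Cells were grown in 96-well plates and exposed to each compound for 48 hours at five concentrations; endpoints were interpolated linearly between bracketing concentrations, or set to the highest concentration if not reached. Abbreviation: GI50, concentration required for 50% inhibition of growth. The concentration for full growth arrest is given as TGI.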

Legend:
Assay in all cases: DTP human tumour cell line panel, 48 h
NCI-H23 lung = test system: NCI-H23 lung
UO-31 renal = test system: UO-31 renal
A549 NSCLC = test system: A549 NSCLC
SK-MEL-2 melanoma = test system: SK-MEL-2 melanoma
CCRF-CEM leukemia = test system: CCRF-CEM leukemia
SK-MEL-28 melanoma = test system: SK-MEL-28 melanoma
SR leukemia = test system: SR leukemia
KM12 colon = test system: KM12 colon
RPMI-8226 leukemia = test system: RPMI-8226 leukemia
HT29 colon = test system: HT29 colon

SMILES	TGI (NCI-H23 lung)	TGI (UO-31 renal)	TGI (A549 NSCLC) [µM]	TGI (SK-MEL-2 melanoma)	TGI (CCRF-CEM leukemia)	TGI (SK-MEL-28 melanoma)	TGI (SR leukemia)	TGI (KM12 colon)	TGI (RPMI-8226 leukemia)	TGI (HT29 colon)	GI50 (NCI-H23 lung)	GI50 (UO-31 renal)	GI50 (A549 NSCLC)	GI50 (SK-MEL-2 melanoma)	GI50 (CCRF-CEM leukemia)	GI50 (SK-MEL-28 melanoma)	GI50 (SR leukemia)	GI50 (KM12 colon)	GI50 (RPMI-8226 leukemia)	GI50 (HT29 colon)
C[N+](C)(C)CC(=O)N/N=C(/C(=O)Nc1ccc(Br)cc1)C1C(=O)NC(=O)NC1=O	> 100 µM	> 100 µM	> 100	> 100 µM	> 100 µM	> 100 µM	> 100 µM	> 100 µM	> 100 µM	> 100 µM										
CN(C)C(=N/O)/C(=N\O)N(C)C	> 100 µM	> 100 µM	> 100	> 100 µM	> 100 µM	> 100 µM	> 100 µM	> 100 µM	> 100 µM	> 100 µM										
COc1cc(Nc2ncc(-c3ccccc3)o2)cc(OC)c1	> 25 µM	> 25 µM	> 25	> 25 µM	> 25 µM	> 25 µM	> 25 µM	> 25 µM	> 25 µM	> 25 µM	> 25 µM	> 25 µM	> 25 µM	> 25 µM	> 25 µM	> 25 µM	> 17.7 µM	1.59 µM	> 25 µM	> 25 µM
COc1ccc(/C(COc2ccc3oc(-c4ccccc4)cc(=O)c3c2)=N\O)cc1	9.75 µM	> 50 µM	> 50	> 50 µM	> 50 µM	5.13 µM	> 50 µM	1.89 µM	20 µM	> 50 µM	0.189 µM	1.6 µM	0.133 µM	32.1 µM	0.346 µM	0.65 µM		0.0245 µM	0.196 µM	0.783 µM
CC1C(C)N(C(=O)CCl)c2ccccc2N1C(=O)CCl (configuration not stated)	2.68 µM	0.346 µM	6.11	4.54 µM	0.629 µM	2.9 µM	2.02 µM	1.34 µM	0.649 µM	0.523 µM	0.705 µM	0.168 µM	2.25 µM	1.66 µM	0.15 µM	0.838 µM	0.396 µM	0.55 µM	0.21 µM	0.225 µM
CCN(Cc1ccccc1)C1CCN(Cc2cc(Br)ccc2O)CC1	> 100 µM	> 100 µM	> 100	> 100 µM	> 100 µM	59.4 µM	> 100 µM	> 100 µM	> 100 µM	> 100 µM	34.9 µM	24 µM	69.6 µM	85.4 µM	39.3 µM	22 µM	27.8 µM	42.3 µM	25.5 µM	20.1 µM
CC(C)(C)C1CCC2c3c([nH]c4ccccc34)C3C(=O)N(c4ccc(Cl)cc4)C(=O)C3C2C1 (configuration not stated)	> 100 µM	> 100 µM	> 100	> 10 µM	47.3 µM and > 10 µM	> 100 µM	39.5 µM and > 10 µM	> 100 µM	77 µM and > 10 µM	> 100 µM	58.4 µM and > 10 µM	> 100 µM	67 µM and > 10 µM			> 100 µM		44.3 µM and > 10 µM	27.2 µM and > 10 µM	34.5 µM and > 10 µM
CNC(=O)c1cc(Oc2ccc(NC(=O)Nc3ccc(Cl)c(C(F)(F)F)c3)c(F)c2)ccn1	6.29 µM and 7.14 µM	4.22 µM and > 10 µM	> 24.1	2.13 µM and 1.86 µM	7.01 µM and 8.88 µM	6.28 µM and 8.13 µM	4.38 µM and > 10 µM	7.86 µM and > 10 µM	4.96 µM and 7.32 µM	8.83 µM and > 10 µM	1.42 µM and 1.44 µM	1.53 µM and 1.82 µM	2.39 µM and 2.64 µM	0.664 µM and 0.336 µM	2.24 µM and 2.51 µM	1.57 µM and 1.3 µM	1.9 µM and 2.63 µM	1.9 µM and 1.49 µM	1.71 µM and 1.83 µM	1.82 µM and 1.43 µM
COc1ccc2c3c([nH]c2c1[N+](=O)[O-])C(C)N(Cc1ccccc1)CC3 (configuration not stated)	> 100 µM	> 100 µM	> 100	> 100 µM	> 100 µM	59.5 µM	45.2 µM	> 100 µM	7.56 µM	13.7 µM										
NC(=O)c1cc([N+](=O)[O-])c(Cl)c([N+](=O)[O-])c1Cl	4.25 µM	3.48 µM	3.8	3.16 µM	2.38 µM	3.15 µM	4.8 µM	3.02 µM	3.61 µM	1.05 µM	1.96 µM	1.58 µM	1.88 µM	1.71 µM	0.4 µM	1.74 µM	0.516 µM	1.61 µM	0.661 µM	0.308 µM
CC1CC[P+](c2ccccc2)(c2ccccc2)c2c1ccc1ccccc21 (configuration not stated)	9.78 µM	> 68.3 µM	> 100	7.13 µM	42.1 µM	> 73.4 µM	> 100 µM	14.8 µM	11.6 µM	13.9 µM						13 µM	9.65 µM		1.63 µM	
Nc1ccc(C(=O)N/C(=C\c2cccc([N+](=O)[O-])c2)c2nc3[nH]c(=S)[nH]c(=O)c3[nH]2)cc1	> 100 µM	> 100 µM	> 100	> 100 µM	> 100 µM	> 100 µM	> 100 µM	> 100 µM	> 100 µM	> 100 µM										
O=C(CCCN1CCC(O)(c2ccc(Cl)cc2)CC1)c1ccc(F)cc1	84.1 µM	45.8 µM	> 100	39.5 µM	> 100 µM	36.9 µM	> 100 µM	39.1 µM	> 100 µM	> 100 µM										
COc1ccc2c(c1)[nH]c(=O)c1c3cccc(F)c3cn21	> 52.3 µM	> 70.6 µM	> 100	> 100 µM	0.304 µM	> 69.8 µM	0.594 µM	> 100 µM	0.27 µM		0.21 µM	0.0596 µM	0.0667 µM	0.469 µM	0.0282 µM	0.351 µM	0.0247 µM	0.0436 µM	0.0295 µM	0.0306 µM
CCOC(=O)C(=O)CC1=Nc2ccccc2SC(c2cccc(C)c2)C1 (configuration not stated)	32 µM	28.7 µM	50.8	30.5 µM	63.1 µM	29.3 µM	60.5 µM	30.9 µM	67.3 µM	29.8 µM										
Cc1ccc(/C=N/Nc2nc(Nc3ccccc3)nc(-n3nc(C)cc3C)n2)cc1	24.3 µM	19.7 µM	35.7	27 µM	> 100 µM	> 100 µM	> 100 µM	13.1 µM	12.9 µM	> 100 µM	5.41 µM	4.09 µM	4.19 µM	5.72 µM	3.72 µM	6.12 µM	3.31 µM	3.28 µM	3.19 µM	3.55 µM
O=C1N2Cc3c4ccc5c3CN3C(=O)N6Cc7c(ccc(c7CN1C6(c1ccccc1)C23c1ccccc1)OCCOCCNCCOCCO4)OCCOCCNCCOCCO5 (configuration not stated)	> 100 µM	> 100 µM	> 100	> 100 µM	> 100 µM	> 100 µM	> 100 µM	> 100 µM	92.2 µM	> 100 µM										
CCC(C)[C@H](NC(=O)Nc1cc(C(F)(F)F)cc(C(F)(F)F)c1)C(=O)N[C@@H](Cc1cn(C)cn1)C(=O)OC (some centres not stated)		2.31 µM	1.85	1.89 µM	1.45 µM	1.1 µM	2.08 µM	1.83 µM	1.86 µM	1.4 µM	6.15 µM	1.52 µM	1.33 µM	1.4 µM	0.0146 µM	0.572 µM	0.801 µM	0.788 µM	0.721 µM	0.711 µM
CC(C)(C)c1ccc(Oc2ccc(N)cn2)cc1	> 100 µM	> 100 µM	> 100	> 100 µM	> 100 µM	> 100 µM	> 100 µM	> 100 µM	41.2 µM	> 100 µM	53 µM	1.75 µM	9.19 µM	> 100 µM	1.06 µM	75.9 µM	30 µM	44.2 µM	1.99 µM	47.2 µM
CCOCCCn1c2c(c3c(O)cccc31)C(=O)c1ccccc1-2	53.2 µM	38.4 µM	> 100	38.5 µM	88.6 µM	46.3 µM	27.7 µM	39.4 µM	43.9 µM	> 100 µM	19.1 µM	15.9 µM	29.2 µM	20.3 µM	25.1 µM	22.5 µM	10.6 µM	16.6 µM	16.4 µM	30.2 µM
COc1ccc2c(c1OC)CO[C@@H]2[C@H]1c2c(cc3c(c2OC)OCO3)CCN1S(=O)(=O)c1cn(C)cn1	> 100 µM	> 100 µM	> 100	> 100 µM	> 100 µM	> 100 µM	> 100 µM	> 100 µM	30.2 µM	> 100 µM	3.43 µM	5.2 µM	1.99 µM	2.17 µM	0.944 µM	5.4 µM	0.902 µM	0.684 µM	2.48 µM	0.614 µM
O=C(/C=C/c1ccccc1F)c1ccc(Cl)c(Cl)c1	24 µM	> 100 µM	> 100	> 100 µM	67.8 µM	> 100 µM	> 100 µM	45 µM	> 75.6 µM	> 75.2 µM										
O=C(/C=C\c1ccc([N+](=O)[O-])cc1)c1ccccc(=O)c1O	12.4 µM	3.3 µM	11.9	6.93 µM	0.532 µM	3.75 µM	> 100 µM	2.87 µM	4.5 µM	3.85 µM										
Cc1ccccc1NC(=O)c1sc2nc(C)c(C(=O)/C=C/c3ccccc3)cc2c1N	3.16 µM	1.53 µM	9.7	8.59 µM	> 50 µM	3.72 µM	> 50 µM	2.02 µM	3.48 µM	3.21 µM	1.21 µM	0.814 µM	1.58 µM	1.81 µM	1.5 µM	1.26 µM	1.13 µM	0.901 µM	1.2 µM	1.18 µM
CCN(CC)CCCNc1cc(OC)cc2nc3cc(Cl)ccc3nc12	4.32 µM	4.08 µM	5.3	3.43 µM	11.1 µM	3.21 µM	18 µM	3.43 µM	6.25 µM	1.87 µM	1.79 µM	1.19 µM	1.18 µM	1.75 µM	2.52 µM	1.79 µM	0.633 µM	1.3 µM	2.53 µM	0.399 µM
COCc1c(-c2cc3cc(C)cc(OC)c3s2)c2c(N)ncnn2c1CN1CCNC(=O)C1	70.7 µM	11.9 µM	29.9	8.61 µM	53.8 µM	70.3 µM	40.5 µM	77.6 µM	6.83 µM	19.9 µM	4.45 µM	1.76 µM	3.2 µM	2.83 µM	3.42 µM	9.38 µM	3.81 µM	5.62 µM	1.58 µM	3.68 µM
COc1ccc(C/C(=C(\C)c2ccc(OCCN3CCCC3)cc2)c2ccc(OCCN3CCCC3)cc2)cc1	14.1 µM	2.94 µM	3.84	3.53 µM	4.51 µM	3.3 µM	3.47 µM	3.52 µM	4.3 µM	3.07 µM	3.67 µM	1.56 µM	1.82 µM	1.87 µM	1.8 µM	1.82 µM	0.565 µM	1.79 µM	1.87 µM	1.58 µM
O=c1[nH]c2ccccc2nc1/C=C(\O)c1ccccc1O	> 100 µM	> 100 µM	> 100	> 100 µM	> 100 µM	> 100 µM	> 100 µM	> 100 µM	> 100 µM	> 100 µM										
CCc1ccc(CCC(=O)Nc2ncc(Cc3ccc(Cl)cc3)s2)o1	> 100 µM	> 100 µM	> 100	> 100 µM	> 100 µM	> 100 µM	> 100 µM	> 100 µM	> 100 µM	> 100 µM	1.53 µM	0.65 µM	0.496 µM	0.684 µM	0.352 µM	4.27 µM	0.419 µM	0.377 µM	0.372 µM	0.367 µM
